These results are taken from article doi:10.1101/2023.12.06.570349v1 (biorxiv, 2023).

In assay [1] the target is T1, H3R-413 (Homo sapiens, UniProt Q9Y5N1, DEL274-305). The assay can be described thus: cell-based. Further details: species or system HEK293-EPAC stably expressing H3R isoform.
Assay [2] has as its target T1, H3R-413. Description: biochemical.
Assay [3] has as its target T2, H3R-365 (Homo sapiens, UniProt Q9Y5N1). The assay can be described thus: biochemical.
In assay [4] the target is T3, H3R-415 (Homo sapiens, UniProt Q9Y5N1). Description: cell-based. Also on record: species or system HEK293-EPAC stably expressing H3R isoform. The following applies: HEK293-EPAC stably expressing H3R isoform, read-out: H3R-415 α.
The target in assay [5] is T4, H3R-453 (Homo sapiens, UniProt Q9Y5N1). The assay can be described thus: cell-based. Further details: species or system HEK293-EPAC stably expressing H3R isoform. The following applies: HEK293-EPAC stably expressing H3R isoform, read-out: H3R-453 α.
Assay [6] deals with T5, H3R-373 (Homo sapiens, UniProt Q9Y5N1, INS445KMKKKTCL).
The target of assay [7] is T6, H3R-445 (Homo sapiens, UniProt Q9Y5N1). Description: cell-based. Also on record: species or system HEK293-EPAC stably expressing H3R isoform. The conditions noted are these: HEK293-EPAC stably expressing H3R isoform, read-out: H3R-445 α.
Assay [8] has as its target T4, H3R-453.
Assay [9] addresses T2, H3R-365. The assay can be described thus: cell-based. Further details: species or system HEK293-EPAC stably expressing H3R isoform. The conditions noted are these: HEK293-EPAC stably expressing H3R isoform, read-out: H3R-365 α.
In assay [10] the target is T5, H3R-373. The assay can be described thus: cell-based. Also on record: species or system HEK293-EPAC stably expressing H3R isoform. The following applies: HEK293-EPAC stably expressing H3R isoform, read-out: H3R-373 α.
Assay [11] deals with T3, H3R-415. The assay can be described thus: biochemical.
Assay [12] addresses T1, H3R-413. The assay can be described thus: cell-based. Also on record: species or system HEK293-EPAC stably expressing H3R isoform. The conditions noted are these: HEK293-EPAC stably expressing H3R isoform, read-out: H3R-413 α.
In assay [13] the target is T6, H3R-445. Description: biochemical.
For assay [14], the target named is T3, H3R-415. The assay can be described thus: cell-based. Further details: species or system HEK293-EPAC stably expressing H3R isoform.
Assay [15] concerns the target T5, H3R-373. Also on record: species or system HEK293-EPAC stably expressing H3R isoform. The following applies: agonist.
Assay [16] deals with T4, H3R-453. Also on record: species or system HEK293-EPAC stably expressing H3R isoform. The conditions noted are these: agonist.
Assay [17] concerns the target T6, H3R-445. Description: cell-based. Also on record: species or system HEK293-EPAC stably expressing H3R isoform.
Assay [18] concerns the target T2, H3R-365. The assay can be described thus: cell-based. The conditions noted are these: HEK293-EPAC stably expressing H3R isoform, read-out: H3R-365 α.
In assay [19] the target is T6, H3R-445. The assay can be described thus: cell-based. The following applies: HEK293-EPAC stably expressing H3R isoform, read-out: H3R-445 α.
The target of assay [20] is T3, H3R-415. The assay can be described thus: cell-based. The following applies: HEK293-EPAC stably expressing H3R isoform, read-out: H3R-415 α.
Assay [21] has as its target T4, H3R-453. The assay can be described thus: cell-based. The following applies: HEK293-EPAC stably expressing H3R isoform, read-out: H3R-453 α.
The target in assay [22] is T4, H3R-453. The following applies: […] Tris-HCl pH […] °C, […] h; labelled compound.
Assay [23] concerns the target T1, H3R-413. Description: biochemical. This is another data set of the same source.
The target in assay [24] is T3, H3R-415. Description: biochemical. This is another data set of the same source.
Assay [25] has as its target T2, H3R-365. Description: biochemical. This is another data set of the same source.
The target in assay [26] is T5, H3R-373. The following applies: […] Tris-HCl pH […] °C, […] h; labelled compound.
Assay [27] has as its target T6, H3R-445. The assay can be described thus: biochemical. The source holds these as a separate data set.

As a reminder, the EC50 is the concentration at which the effect is half-maximal. One may read the Ki as the dissociation constant of the complex between target and ligand, obtained from inhibition or displacement. Low values mean tighter binding, high ones weaker binding. By pKD is commonly meant the KD on a negative log10 scale, so that one unit is a factor of ten. Lower therefore signals a high KD. What is called Kd is a measure of binding affinity in units of concentration. Higher therefore signals a looser complex.

Where two headings read alike, the source gives them in different places.

Regarding `NCCCCCc1c[nH]cn1` [impentamine, 5-(3H-imidazol-4-yl)pentan-1-amine], a half-maximal effect in [1] (EC50) was put at 6.31 nM. Further, the Ki in assay [2] was 3.98 nM; in [3], 2 nM; in [6], 1.58 nM; in [8] it was 3.16 nM; in assay [11] it was 3.98 nM; in assay [13] it was 2.51 nM. Moreover, the Emax turned out to be 50 ± 10% in assay [4]; 50 ± 10% in assay [5]; 60 ± 20% in assay [7]; 100 ± 30% in assay [9]; 70 ± 10% in assay [10]; 50 ± 10% in assay [12].
Take `c1ccc(COCCCc2c[nH]cn2)cc1` [proxyfan, 4-[3-(phenylmethoxy)propyl]-3H-imidazole]: the EC50 in assay [14] is 15.8 nM; in assay [1], 31.6 nM; in [17], 7.94 nM. The Ki in assay [2] is 5.01 nM; in [6] it was 1 nM. Moreover, the Emax came out at 70 ± 10% in [4]; 100 ± 20% in [5]; 90 ± 10% in [7]; 100 ± 10% in assay [9]; 80 ± 10% in [10]; 90 ± 10% in assay [12]. In assay [15], the “H3R-373 pEC50” value came out at 8.0 ± 0.0 M. Besides, in [16], the “H3R-453 pEC50” value is 7.2 ± 0.4 M.
In the case of `C[C@@H](N)Cc1cnc[nH]1` [RAMH, (2R)-1-(3H-imidazol-4-yl)propan-2-amine], the Emax came to 100 ± 20% in assay [18], 100% in [19], 110 ± 40% in assay [20] and 140 ± 10% in assay [21].
For the compound `CNCCc1c[nH]cn1` [[3H]NAMH], the negative logarithm of the KD (pKD) in [22] turned out to be 9.0 ± 0.1; in assay [26] it was 9.6 ± 0.1. Moreover, the dissociation constant Kd was 1.26 nM in [23], 1.26 nM in assay [24], 0.501 nM in [25] and 1.26 nM in assay [27].
